Test results taken from patent EP1100483B1, “GLUCOCORTICOID-SELECTIVE ANTI-INFLAMMATORY AGENTS” (Abbott Laboratories, priority 1998, dated 2000).

What follows are molecules tested against T1, human glucocorticoid receptor-α [GRX] isoform (Homo sapiens, UniProt P04150) (assay: glucocorticoid receptor (GR) cytosol binding assay, [3H]-dexamethasone competition). Conditions: not given.
T1 construct: purchased Ligand Pharmaceuticals (San Diego, CA); host or cells: insect SF21 cells (baculovirus)
T1 sequence (P04150 1-777): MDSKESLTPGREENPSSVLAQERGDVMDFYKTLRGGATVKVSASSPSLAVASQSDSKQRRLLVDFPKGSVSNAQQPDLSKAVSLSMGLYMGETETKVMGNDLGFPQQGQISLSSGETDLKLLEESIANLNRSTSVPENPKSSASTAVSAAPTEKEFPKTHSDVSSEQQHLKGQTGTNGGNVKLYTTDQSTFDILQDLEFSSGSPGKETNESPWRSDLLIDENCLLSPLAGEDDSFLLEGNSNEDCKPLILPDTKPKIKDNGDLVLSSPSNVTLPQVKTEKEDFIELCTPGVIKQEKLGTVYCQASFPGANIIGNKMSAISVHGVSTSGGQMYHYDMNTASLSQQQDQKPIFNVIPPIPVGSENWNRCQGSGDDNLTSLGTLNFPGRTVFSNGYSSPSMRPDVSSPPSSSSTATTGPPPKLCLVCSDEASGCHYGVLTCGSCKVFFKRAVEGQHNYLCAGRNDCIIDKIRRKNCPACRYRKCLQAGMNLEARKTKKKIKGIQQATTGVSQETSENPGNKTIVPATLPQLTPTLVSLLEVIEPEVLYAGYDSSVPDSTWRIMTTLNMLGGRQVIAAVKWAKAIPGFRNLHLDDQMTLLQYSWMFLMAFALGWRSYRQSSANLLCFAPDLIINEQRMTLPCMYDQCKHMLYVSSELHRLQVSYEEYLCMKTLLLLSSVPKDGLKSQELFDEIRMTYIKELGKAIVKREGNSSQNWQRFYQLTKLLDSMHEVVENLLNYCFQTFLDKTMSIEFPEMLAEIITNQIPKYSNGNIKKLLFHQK
Description: For glucocorticoid receptor (OR) cytosol binding assays, the procedure described in Anal. […] Briefly, cytosol preparations of human glucocorticoid receptor-α [GRX] isoform and human progesterone receptor-A [PRA] isoform were obtained from Ligand Pharmaceuticals (San Diego, CA). Both receptor cDNAs were cloned into baculovirus expression vectors and expressed in insect SF21 cells. […] Glass fiber type C multiscreen MAFC NOB plates were from Millipore ( Burlington, MA). Hydroxyapatide Bio-Gel HTP gel was obtained from Bio-Rad Laboratories (Hercules. CA). Tris(hydroxymethyl)aminomethane (Tris), ethylenediaminetetraacetic acid (EDTA), glycerol, dithiothreitol (DTT) and sodium moylybdate were obtained from Sigma Chemicals (St. Louis, MO). Microscint-20 scintillation fluid was obtained from Packard Instrument (Meriden, CT). […] GRX and PRA binding reactions were performed in Millipore Multiscreen plates. […] Specific binding was defined as the difference between binding of [^3H]Dex in the absence and in the presence of 1µM unlabeled Dex. After an overnight incubation, 50 µL of hydroxyapatite (25 % weight/volume) slurry were added to each well and plates were incubated for 10 min at 4 °C in a plate shaker. Plates were suctioned with a Millipore vacuum manifold and each well was rinsed with 300 µL of ice-cold binding buffer. A 250 µL aliquot of Packard Microscint-20 was added to each well and the wells were shaken at room temperature for 20 minutes. The amount of radioactivity was determined with a Packard TopCount plate reader.

Row | SMILES | Ki [nM]
1 | CN(C)c1ccc(C(c2ccc(N3CCCCC3)cc2)c2cc([N+](=O)[O-])ccc2Cl)cc1 (stereo not shown) [Example 46, 4'-dimethylamino-4"-(N-piperidinyl)-2-chloro-5-nitrotriphenylmethane] | 1160
2 | CN(C)c1ccc(C(c2ccc(N(C)C)cc2)c2cc3c(cc2Cl)OCO3)cc1 [Example 19, 4',4" bis(dimethylamino)-2-chloro-4,5-methylenedioxytriphenylmethane] | 1600
3 | CN(C)c1ccc(C(c2ccc(N(C)C)cc2)c2ccc(Cl)cc2Cl)cc1 [Example 18, 4',4" bis(dimethylamino)-2,4-dichlorotriphenylmethane] | 5000
4 | COc1ccc(C(c2ccc(N(C)C)cc2)c2ccc(N(C)C)cc2)cc1 [Example 38, 4',4"bis(dimethylamino)-4-methoxytriphenylmethane] | 4710
5 | CN(C)c1ccc(C(c2ccc(N(C)C)cc2)c2ccccc2F)cc1 [Example 25, 4',4" bis(dimethylamino)-2-fluorotriphenylmethane] | 5270
6 | CN(C)c1ccc(C(c2ccc(N(C)C)cc2)c2cc(NC(=O)c3ccc([N+](=O)[O-])cc3)ccc2Cl)cc1 [Example 60, 4',4" bis(dimethylamino)-2-chloro-5-(4-nitrobenzamido)triphenylmethane] | 4650
7 | CN(C)c1ccc(C(c2ccc(N(C)C)cc2)c2cccc(Cl)c2Cl)cc1 [Example 21, 4',4" bis(dimethylamino)-2,3-dichlorotriphenylmethane] | 1890
8 | CN(C)c1ccc(C(c2ccc(N3CCOCC3)cc2)c2cc([N+](=O)[O-])ccc2Cl)cc1 (stereo not shown) [Example 40, 4'-dimethylamino-4"-(N-morpholinyl)-2-chloro-5-nitrotriphenylmethane] | 252
9 | CN(C)c1ccc(C(c2ccc(N(C)CCOC(=O)c3ccccc3)cc2)c2cc([N+](=O)[O-])ccc2Cl)cc1 (stereo not shown) [Example 50, 4'-dimethylamino-4"-(N-methyl-N-(2-benzoyloxyethyl)amino)-2-chloro-5-nitrotriphenylmethane] | 1630
10 | CN(C)c1ccc(C(c2ccc(N(C)C)cc2)c2cc(Cl)cc(Cl)c2Cl)cc1 [Example 16, 4',4" bis(dimethylamino)-2,3,5-trichlorotriphenylmethane] | 479
11 | CN(C)c1ccc(C(c2ccc(N3CCCC3)cc2)c2cc([N+](=O)[O-])ccc2Cl)cc1 (stereo not shown) [Example 41, 4'-dimethylamino-4"-(N-pyrrolidinyl)-2-chloro-5-nitrotriphenylmethane] | 4490
12 | CN(C)c1ccc(C(c2ccc(N(C)C)cc2)c2ccccc2C(F)(F)F)cc1 [Example 10, 4',4" bis(dimethylamino)-2-trifluoromethyltriphenylmethane] | 2230
13 | CN(C)c1ccc(C(c2ccc(N(C)C)cc2)c2ccccc2I)cc1 [Example 26, 4',4" bis(dimethylamino)-2-iodotriphenylmethane] | 734

Same assay, conditions: [3H]-Dex ~0.9 nM, GRX cytosol, 4 °C overnight; Cheng-Prusoff; read-out: Ki (nM) GR

Row | SMILES | Ki [nM]
14 | O=[N+]([O-])c1ccc(Cl)c(C(c2ccc(N3CCOCC3)cc2)c2ccc(N3CCOCC3)cc2)c1 [Example 22, 4',4" bis(N-morpholinyl)-2-chloro-5-nitrotriphenylmethane] | 386
15 | CN(C)c1ccc(C(c2ccc(N(C)C)cc2)c2cc(N)ccc2Cl)cc1 [Example 59, 4',4" bis(dimethylamino)-5-amino-2-chlorotriphenylmethane] | 4600
16 | O=[N+]([O-])c1ccc(Cl)c(C(c2ccc(N3CCCCC3)cc2)c2ccc(N3CCCCC3)cc2)c1 [Example 13, 4',4" bis(N-piperidinyl)-2-chloro-5-nitrotriphenylmethane] | 5000
17 | CN(C)c1ccc(C(c2ccc(N(C)C)cc2)c2cccc([N+](=O)[O-])c2)cc1 [Example 9, 4',4" bis(dimethylamino)-3-nitrotriphenylmethane] | 1380
18 | Clc1ccc(Cl)c(C(c2ccc(NCc3ccccc3)cc2)c2ccc(NCc3ccccc3)cc2)c1 [Example 37, 4',4" bis(N-benzylamino)-2,5-dichlorotriphenylmethane] | 421
19 | CN(C)c1ccc(C(c2ccc(N(C)C)cc2)c2c(Cl)cccc2[N+](=O)[O-])cc1 [Example 12, 4',4" bis(dimethylamino)-2-chloro-6-nitrotriphenylmethane] | 3850
20 | CN(C)c1ccc(C(c2ccc(N(C)C)cc2)c2cc(N(S(C)(=O)=O)S(C)(=O)=O)ccc2Cl)cc1 [Example 63, 4',4" bis(dimethylamino)-2-chloro-5-(dimethylsulphonimido)triphenylmethane] | 4600
21 | CN(C)c1ccc(C(c2ccccc2)c2ccccc2Cl)cc1 (stereo not shown) [Example 58, 4'-dimethylamino-2-chlorotriphenylmethane] | 4300
22 | CN(C)c1ccc(C(c2ccc(N(C)C)cc2)c2ccc(Cl)c([N+](=O)[O-])c2)cc1 [Example 2, 4',4" bis(dimethylamino)-4-chloro-3-nitrotriphenylmethane] | 4200
23 | Clc1cc(Cl)c(Cl)c(C(c2ccc(N3CCOCC3)cc2)c2ccc(N3CCOCC3)cc2)c1 [Example 28, 4',4" bis(N-morpholinyl)-2,3,5-trichlorotriphenylmethane] | 5270
24 | CN(C(=O)OC(C)(C)C)c1ccc(C(c2ccc(N(C)C(=O)OC(C)(C)C)cc2)c2cc([N+](=O)[O-])ccc2Cl)cc1 [Example 35, 4',4" bis(N-(t-butoxycarbonyl) N-methylamino)-2-chloro-5-nitrotriphenylmethane] | 4560
25 | CN(C)c1ccc(C(c2ccc(Cl)cc2)c2ccc(N(C)C)cc2)cc1 [Example 5, 4',4" bis(dimethylamino)-4-chlorotriphenylmethane] | 4650
26 | CC(=O)Nc1ccc(Cl)c(C(c2ccc(N(C)C)cc2)c2ccc(N(C)C)cc2)c1 [Example 3, 4',4" bis(dimethylamino)-5-acetamido-2-chlorotriphenylmethane] | 5150
27 | COc1ccccc1C(c1ccc(N(C)C)cc1)c1ccc(N(C)C)cc1 [Example 8, 4',4" bis(dimethylamino)-2-methoxytriphenylmethane] | 4290
28 | CN(C)c1ccc(C(c2ccc(N(C)C)cc2)c2cccc(Cl)c2)cc1 [Example 6, 4',4" bis(dimethylamino)-3-chlorotriphenylmethane] | 2520
29 | CN(C)c1ccc(C(Nc2ccccc2)c2cc([N+](=O)[O-])ccc2Cl)cc1 (stereo not shown) [Example 55, phenyl-[(4'-dimethylaminophenyl)-(2-chloro-5-nitrophenyl)methyl] amine] | 1680
30 | CN(C)c1ccc(C(c2ccc(N(C)C)cc2)c2cc(NCc3ccco3)ccc2Cl)cc1 [Example 66, 4',4" bis(dimethylamino)-2-chloro-5-(2-furanylmethylamino)triphenylmethane] | 757
31 | CN(C)c1ccc(C(c2ccc(N(C)C)cc2)c2cc(Br)ccc2Cl)cc1 [Example 34, 4',4" bis(dimethylamino)-5-bromo-2-chlorotriphenylmethane] | 725
32 | CN(C)c1ccc(C(c2ccccc2)c2cc([N+](=O)[O-])ccc2Cl)cc1 (stereo not shown) [Example 56, 4'-dimethylamino-2-chloro-5-nitrotriphenylmethane] | 1030
33 | O=[N+]([O-])c1ccc(Cl)c(C(c2ccc(N3CCCC3)cc2)c2ccc(N3CCCC3)cc2)c1 [Example 29, 4',4" bis(N-pyrrolidinyl)-2-chloro-5-nitrotriphenylmethane] | 4560
34 | COC(=O)Nc1ccc(Cl)c(C(c2ccc(N(C)C)cc2)c2ccc(N(C)C)cc2)c1 [Example 64, 4',4" bis(dimethylamino)-2-chloro-5-(methoxycarbonylamino)triphenylmethane] | 5270
